Consider 1 compound from PMC9134403 (ACS Omega, 2022).

The pKi is the negative decadic logarithm of the Ki, by convention in mol/L.

pKi: −log10 of the molar value.

This test concerns the target mushroom tyrosinase (Agaricus bisporus, UniProt C7FF04). As to the kind of experiment: Kinetic analysis. In kind it is biochemical.

mushroom tyrosinase, sequence (C7FF04 1-392): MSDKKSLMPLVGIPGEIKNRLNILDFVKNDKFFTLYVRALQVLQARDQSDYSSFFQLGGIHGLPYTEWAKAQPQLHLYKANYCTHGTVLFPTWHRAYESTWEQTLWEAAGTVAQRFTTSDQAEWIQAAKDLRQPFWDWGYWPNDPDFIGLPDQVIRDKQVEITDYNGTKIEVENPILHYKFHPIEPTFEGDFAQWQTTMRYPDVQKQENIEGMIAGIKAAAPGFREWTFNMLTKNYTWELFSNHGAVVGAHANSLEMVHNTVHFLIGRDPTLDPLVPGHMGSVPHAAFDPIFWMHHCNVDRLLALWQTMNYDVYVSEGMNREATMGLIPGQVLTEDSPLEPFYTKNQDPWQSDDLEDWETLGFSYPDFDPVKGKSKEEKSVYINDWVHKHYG

In the case of `O=[N+]([O-])c1cccc(-c2oc3cc(Br)cc(Br)c3c(=S)c2O)c1` [2n, 5,7-Dibromo-3-hydroxy-2-(3-nitrophenyl)-4H-chromene-4-thione], the pKi is 5.70. Further, the mode of inhibition result (Lineweaver–Burk plot, Km increased, Vmax constant) is “competitive”.
